PMC3743129 (ACS medicinal chemistry letters, 2013)
Marks after values point to notes of the source that are not given here.

Assays:
[1] = system: a number of different viruses; conditions: cited from earlier work
[2] = type: in vitro ADME
in vitro = in vitro ADME
MeV-Edm = assay: microbe, parasite or virus in culture; type: cell-based; conditions: Measles morbillivirus, read-out: EC50 against MeV strain Edmonston

## COc1ccc(-n2c(SC(C)C(=O)Nc3ccc(C)cc3Cl)nc3ccccc32)cc1 (stereo not drawn) [Compound 1]
[1]
  activity against a number of different viruses in cell culture: low nanomolar activity

## C#CCn1c([S+](=O)([O-])Cc2ccc(F)cc2)nc(-c2ccccc2)c1-c1ccccc1 [Compound 3]
[2]
  S9 stability T1/2 hamster: <2.5 min

## O=S(=O)(Cc1ccccc1)c1nc(-c2ccccc2)c(-c2ccccc2)[nH]1 [Compound 13a]
[2]
  S9 stability T1/2 hamster: <2.5 min

## Cn1c(S(=O)(=O)Cc2ccccc2)nc(-c2ccccc2)c1-c1ccccc1 [Compound 13b]
In vitro; human, 20 min, 100 μM
  metabolite peak in LC-MS, % of total area: 91%
In vitro; human, s9
  half-life: 2 to 12 min
In vitro; s9
  S9 stability T1/2 human: 2-12^b min
[2]
  S9 stability T1/2 hamster: <2.5^b min

## Cn1c(S(=O)(=O)Cc2ccc(F)cc2)nc(-c2ccc(F)cc2)c1-c1ccc(F)cc1 [Compound 13c]
[2]
  S9 stability T1/2 hamster: <2.5^b min

## CN(Cc1nc(-c2ccccc2)c(-c2ccccc2)n1C)c1ccccc1 [Compound 28a]
MeV-Edm
  EC50: 810 nM
